Reference: the supplement of paper PMC4862054
Several values for one entry are separate records, joined by “and”; a condition that tells them apart may be missing. Equal values may be shown once.

Key:
Experiment in all cases: normalised viability (% of control), CellTiter-Blue; higher = more viable cells (about 100 = DMSO control)
Details in all cases: incubation time: 72 h
CAL-148 [1] = system: CAL-148
Experimental: (§1)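 DSRT, CellTiter-Blue viability, 72 h incubation. Signal is normalised to DMSO and benzethonium chloride controls. Value is the normalised response at dose 7.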

CAL-51 [2] = system: CAL-51
Experimental: as §1

CAL-85-1 [3] = system: CAL-85-1
Experimental: as §1

DU-4475 [4] = system: DU-4475
Experimental: as §1

HDQ-P1 [5] = system: HDQ-P1
Experimental: as §1

MDA-MB-453 [6] = system: MDA-MB-453
Experimental: as §1

CAL-148 [7] = system: CAL-148; remark: listed apart in the source
Experimental: (§2)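 DSRT, CellTiter-Blue viability, 72 h incubation. Signal is normalised to DMSO and benzethonium chloride controls. Value is the normalised response at dose 9.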

CAL-51 [8] = system: CAL-51; remark: listed apart in the source
Experimental: as §2

CAL-85-1 [9] = system: CAL-85-1; remark: listed apart in the source
Experimental: as §2

DU-4475 [10] = system: DU-4475; remark: listed apart in the source
Experimental: as §2

HDQ-P1 [11] = system: HDQ-P1; remark: listed apart in the source
Experimental: as §2

MDA-MB-453 [12] = system: MDA-MB-453; remark: listed apart in the source
Experimental: as §2

Row | SMILES | normalised viability (CAL-148 [1]) | normalised viability (CAL-51 [2]) | normalised viability (CAL-85-1 [3]) | normalised viability (DU-4475 [4]) | normalised viability (HDQ-P1 [5]) | normalised viability (MDA-MB-453 [6]) | normalised viability (CAL-148 [7]) | normalised viability (CAL-51 [8]) | normalised viability (CAL-85-1 [9]) | normalised viability (DU-4475 [10]) | normalised viability (HDQ-P1 [11]) | normalised viability (MDA-MB-453 [12])
1 | N#Cc1ccc(COC[C@H]2O[C@@H](n3c(NCc4ccc(Cl)c(Cl)c4)nc4c(N)ncnc43)[C@H](O)[C@@H]2O)cc1 (1000 nM) | 101% | 105% | 88.9% | 99.8% | 81.2% | 93.2% |  |  |  |  |  | 
2 | N#Cc1ccc(COC[C@H]2O[C@@H](n3c(NCc4ccc(Cl)c(Cl)c4)nc4c(N)ncnc43)[C@H](O)[C@@H]2O)cc1 (10000 nM) |  |  |  |  |  |  | 89% | 89.9% | 92% | 76.9% | 88.4% | 50.3%
3 | COc1cc(OC2CCN(C)CC2)ccc1Nc1ncc2c(n1)n(C1CCCC1)c(=O)n2C [AZ 3146] (1000 nM) | 108% | 75.2% | 108% | 99% | 89.4% | 90.6% |  |  |  |  |  | 
4 | COc1cc(OC2CCN(C)CC2)ccc1Nc1ncc2c(n1)n(C1CCCC1)c(=O)n2C [AZ 3146] (10000 nM) |  |  |  |  |  |  | 48.4% | 22% | 72.4% | 54.6% | 80.1% | 37.4%
5 | CN(C)c1nc(N(C)C)nc(N(C)C)n1 [Altretamine] (1000 nM) | 105% | 103% | 96.9% | 113% | 101% | 91.6% |  |  |  |  |  | 
6 | CN(C)c1nc(N(C)C)nc(N(C)C)n1 [Altretamine] (10000 nM) |  |  |  |  |  |  | 63.4% | 72.6% | 46.5% | 94.7% | 111% | 18.7%
7 | O=C(/C=C/c1cccc(S(=O)(=O)Nc2ccccc2)c1)NO [Belinostat] (1000 nM) | 24.3% | 59.9% | 42.8% | 33.3% | 49.5% | 4.06% |  |  |  |  |  | 
8 | O=C(/C=C/c1cccc(S(=O)(=O)Nc2ccccc2)c1)NO [Belinostat] (10000 nM) |  |  |  |  |  |  | 0.35% | 3.47% | 7.19% | 4.25% | 23% | 1.48%
9 | O=P1(N(CCCl)CCCl)NCCCO1 (centres undefined) [Cyclophosphamide] (4000 nM) | 121% | 99% | 101% | 97% | 99.2% | 105% |  |  |  |  |  | 
10 | O=P1(N(CCCl)CCCl)NCCCO1 (centres undefined) [Cyclophosphamide] (40000 nM) |  |  |  |  |  |  | 110% | 101% | 98.4% | 94.4% | 120% | 117%
11 | C=C1C[C@@H]2[C@H](CC[C@]3(C)C(=O)CC[C@@H]23)[C@@]2(C)C=CC(=O)C=C12 [Exemestane] (1000 nM) | 120% | 96.5% | 91.7% | 85.8% | 102% | 90.2% |  |  |  |  |  | 
12 | C=C1C[C@@H]2[C@H](CC[C@]3(C)C(=O)CC[C@@H]23)[C@@]2(C)C=CC(=O)C=C12 [Exemestane] (10000 nM) |  |  |  |  |  |  | 104% | 105% | 99.1% | 88.9% | 103% | 81%
13 | COc1cc2ncnc(Nc3ccc(F)c(Cl)c3)c2cc1OCCCN1CCOCC1 [Gefitinib] (1000 nM) | 79.6% and 83.3% | 107% and 98.3% | 54.4% and 47.4% | 101% and 86.2% | 76.2% and 90.4% | 82.9% and 76.9% |  |  |  |  |  | 
14 | COc1cc2ncnc(Nc3ccc(F)c(Cl)c3)c2cc1OCCCN1CCOCC1 [Gefitinib] (10000 nM) |  |  |  |  |  |  | 69.2% and 65% | 82.1% and 81.6% | 45% and 40.7% | 102% and 105% | 59.6% and 51.1% | 29.8% and 23%
15 | O=C(Nc1ccncc1)C(=O)c1cn(Cc2ccc(Cl)cc2)c2ccccc12 [Indibulin] (1000 nM) | 118% | 54.2% | 53.8% | 81.8% | 61.3% | 38.5% |  |  |  |  |  | 
16 | O=C(Nc1ccncc1)C(=O)c1cn(Cc2ccc(Cl)cc2)c2ccccc12 [Indibulin] (10000 nM) |  |  |  |  |  |  | 43.7% | 24.4% | 38.9% | 21.4% | 55.2% | 36%
17 | NC(=O)c1ccc(I)c([N+](=O)[O-])c1 [Iniparib] (1000 nM) | 87.9% | 95.3% | 83.3% | 108% | 99.6% | 89.2% |  |  |  |  |  | 
18 | NC(=O)c1ccc(I)c([N+](=O)[O-])c1 [Iniparib] (10000 nM) |  |  |  |  |  |  | 108% | 91.6% | 98% | 94% | 106% | 84.8%
19 | CCc1c2c(nc3ccc(OC(=O)N4CCC(N5CCCCC5)CC4)cc13)-c1cc3c(c(=O)n1C2)COC(=O)[C@]3(O)CC [Irinotecan] (1000 nM) | 61.5% and 70.9% | 80.6% and 99.8% | 88.7% and 94.5% | 73.1% and 78.7% | 98.8% and 93.5% | 76% and 99.8% |  |  |  |  |  | 
20 | CCc1c2c(nc3ccc(OC(=O)N4CCC(N5CCCCC5)CC4)cc13)-c1cc3c(c(=O)n1C2)COC(=O)[C@]3(O)CC [Irinotecan] (10000 nM) |  |  |  |  |  |  |  | 8.48% and 31.6% |  | 4.69% and 18.8% | 64% and 80% | 
21 | Oc1ccc2c(c1)CC[C@H](c1ccccc1)[C@@H]2c1ccc(OCCN2CCCC2)cc1 [Lasofoxifene] (100 nM) | 107% | 99.7% | 87.2% | 106% | 109% | 80.7% |  |  |  |  |  | 

Row | SMILES | normalised viability (CAL-148 [1]) | normalised viability (CAL-51 [2]) | normalised viability (CAL-85-1 [3]) | normalised viability (DU-4475 [4]) | normalised viability (HDQ-P1 [5]) | normalised viability (MDA-MB-453 [6]) | normalised viability (CAL-148 [7]) | normalised viability (CAL-51 [8]) | normalised viability (CAL-85-1 [9]) | normalised viability (DU-4475 [10]) | normalised viability (HDQ-P1 [11]) | normalised viability (MDA-MB-453 [12])
22 | Oc1ccc2c(c1)CC[C@H](c1ccccc1)[C@@H]2c1ccc(OCCN2CCCC2)cc1 [Lasofoxifene] (1000 nM) |  |  |  |  |  |  | 107% | 90% | 81.8% | 97.8% | 125% | 107%
23 | Cc1ccc(NC(=O)c2ccc(CN3CCN(C)CC3)cc2)cc1Nc1nc(-c2cccnc2)cs1 [Masitinib] (1000 nM) | 87.1% | 104% | 94.3% | 120% | 105% | 89.6% |  |  |  |  |  | 
24 | Cc1ccc(NC(=O)c2ccc(CN3CCN(C)CC3)cc2)cc1Nc1nc(-c2cccnc2)cs1 [Masitinib] (10000 nM) |  |  |  |  |  |  | 74.5% | 80.4% | 70.4% | 119% | 67.6% | 24.4%
25 | O=C(Nc1cccnc1)N1CCC(Cc2cccc(Oc3ccc(C(F)(F)F)cn3)c2)CC1 [PF-3845] (1000 nM) | 101% | 101% | 83% | 81.3% | 144% | 86% |  |  |  |  |  | 
26 | O=C(Nc1cccnc1)N1CCC(Cc2cccc(Oc3ccc(C(F)(F)F)cn3)c2)CC1 [PF-3845] (10000 nM) |  |  |  |  |  |  | 98.2% | 65.5% | 93.4% | 108% | 128% | 38.4%
27 | Cc1[nH]c2ccccc2c1CCNCc1ccc(/C=C/C(=O)NO)cc1 [Panobinostat] (100 nM) | 5.94% | 25.6% | 15.6% | 3.38% | 32.3% | 2.59% |  |  |  |  |  | 
28 | Cc1[nH]c2ccccc2c1CCNCc1ccc(/C=C/C(=O)NO)cc1 [Panobinostat] (1000 nM) |  |  |  |  |  |  | 0.37% | 1.29% | 4.25% | 4.66% | 15% | 1.09%
29 | COCC1(CO)C(=O)C2CCN1CC2 (centres undefined) [Prima-1 Met] (1000 nM) | 102% | 102% | 90.9% | 108% | 106% | 80.5% |  |  |  |  |  | 
30 | COCC1(CO)C(=O)C2CCN1CC2 (centres undefined) [Prima-1 Met] (10000 nM) |  |  |  |  |  |  | 80.7% | 99.7% | 98.3% | 125% | 103% | 89.4%
31 | CNC(=O)c1cc(Oc2ccc(NC(=O)Nc3ccc(Cl)c(C(F)(F)F)c3)c(F)c2)ccn1 [Regorafenib] (1000 nM) | 107% | 90.5% | 78.6% | 97.6% | 98.3% | 87% |  |  |  |  |  | 
32 | CNC(=O)c1cc(Oc2ccc(NC(=O)Nc3ccc(Cl)c(C(F)(F)F)c3)c(F)c2)ccn1 [Regorafenib] (10000 nM) |  |  |  |  |  |  | 81.7% | 48.2% | 76.7% | 39.3% | 92.9% | 22%
33 | CO[C@H]1C[C@@H]2CC[C@@H](C)[C@@](O)(O2)C(=O)C(=O)N2CCCC[C@H]2C(=O)O[C@H]([C@H](C)C[C@@H]2CC[C@@H](OP(C)(C)=O)[C@H](OC)C2)CC(=O)[C@H](C)/C=C(\C)[C@@H](O)[C@@H](OC)C(=O)[C@H](C)C[C@H](C)/C=C/C=C/C=C/1C [Ridaforolimus] (100 nM) | 37% | 39.4% | 52.5% | 53.7% | 76.6% | 24.1% |  |  |  |  |  | 
34 | c1ccc2c(CCNc3ccc(Nc4ccncc4)cc3)c[nH]c2c1 [Serdemetan] (1000 nM) | 77.3% | 102% | 75.9% | 104% | 96.4% | 85.2% |  |  |  |  |  | 
35 | c1ccc2c(CCNc3ccc(Nc4ccncc4)cc3)c[nH]c2c1 [Serdemetan] (10000 nM) |  |  |  |  |  |  | 55.8% | 57% | 55.1% | -0.82% | 56.6% | 39.4%
36 | CN(C)CCOc1ccc(/C(=C(/CCCl)c2ccccc2)c2ccccc2)cc1 [Toremifene] (1000 nM) | 108% | 100% | 99.7% | 97.4% | 124% | 106% |  |  |  |  |  | 
37 | CN(C)CCOc1ccc(/C(=C(/CCCl)c2ccccc2)c2ccccc2)cc1 [Toremifene] (10000 nM) |  |  |  |  |  |  | 104% | 105% | 83.6% | 94.5% | 108% | 26.5%
38 | CC(C)C[C@@H](C(=O)N[C@H](C(=O)OC1CCCC1)c1ccccc1)[C@H](O)C(=O)NO [Tosedostat] (1000 nM) | 67.8% | 77.1% | 77% | 51% | 76.3% | 41.2% |  |  |  |  |  | 
39 | CC(C)C[C@@H](C(=O)N[C@H](C(=O)OC1CCCC1)c1ccccc1)[C@H](O)C(=O)NO [Tosedostat] (10000 nM) |  |  |  |  |  |  | 23.2% | 33.6% | 49.5% | 35.2% | 76.5% | 18.8%
40 | COc1cc2/c(=N/c3ccc(Br)cc3F)nc[nH]c2cc1OCC1CCN(C)CC1 [Vandetanib] (1000 nM) | 89.2% | 82.4% | 71% | 105% | 48.7% | 87.9% |  |  |  |  |  | 
41 | COCC[n+]1c2c(n(Cc3cnccn3)c1C)C(=O)c1ccccc1C2=O [YM155] (1000 nM) | 2.29% | 1.61% | 2.27% | 1.98% | 0.25% | 7.19% |  |  |  |  |  | 
42 | COCC[n+]1c2c(n(Cc3cnccn3)c1C)C(=O)c1ccccc1C2=O [YM155] (10000 nM) |  |  |  |  |  |  | 2.13% | 1.83% | 2.71% | 0.83% | 0.66% | 2%
